Here are results for one molecule from US20250154165A1, “MULTIANTENNARY GLYCOLIPID MIMETICS” (CONSEJO SUPERIOR DE INVESTIGACIONES CIENTÍFICAS (CSIC), priority 2021, published 2025).

SMILES strings stand for the structures.

The subject of assay [1] is Splenocytes treated with LPS. As to the kind of experiment: Suppression of LPS-induced inflammation (splenocytes in vitro). The class given is cell-based, mouse. Particulars: splenocytes treated concurrently with compound and LPS (FIG. 1). How it is done: FIG. 1. […] Splenocytes were treated concurrently with the compounds of the invention and LPS to assess the suppressive function of compounds on LPS-induced inflammation, with several compounds showing prominent suppressive function.
(§1) The whole spleen was surgically removed from a mouse and mechanically dissociated into a single cell suspension of splenocytes, which were then cultured in the complete RPMI 1640 medium (cRPMI). Human peripheral blood mononuclear cells (PBMCs) from healthy volunteers were collected from whole blood through gradient-centrifugation with Histopaque-1077 (Sigma-Aldrich).
Splenocytes were treated concurrently with the compounds of the invention and LPS to assess the suppressive function of compounds on LPS-induced inflammation.

The test system of assay [2] is ERK. As to the kind of experiment: Signal transduction by multiplex bead array: ERK phosphorylation. Particulars: comparing to LPS treatment alone (FIG. 4). The class given is cell-based. From the text: (§2) FIG. 4. […] Compound 12, a representative compound of the invention, was examined in term of signal transduction to explore how the new compounds exert their suppressive effect, using the multiplex bead array.
(§3) Using the multiplex bead array, we examined how the new compounds might exert their suppressive effect in term of signal transduction.

In assay [3] the test system is JNK. The assay can be described thus: Signal transduction by multiplex bead array: JNK phosphorylation. The class given is cell-based. Particulars: comparing to LPS treatment alone (FIG. 4).
Description: as §2, §3

The subject of assay [4] is STAT3. As to the kind of experiment: Signal transduction by multiplex bead array: STAT3 phosphorylation. Type of assay: cell-based. Particulars: comparing to LPS treatment alone (FIG. 4).
Description: as §2, §3

The subject of assay [5] is Splenocytes treated with αGalCer. As to the kind of experiment: Suppression of αGalCer-induced inflammation (splenocytes in vitro). The class given is cell-based, mouse. Particulars: splenocytes treated concurrently with compound and αGalCer (FIG. 5). How it is done:
FIG. 5. […] Splenocytes were treated concurrently with the compounds of the invention and αGalCer to assess the suppressive function of compounds on αGalCer-induced inflammation, with several compounds showing prominent suppressive function.
as §1
Splenocytes were treated concurrently with the compounds of the invention and αGalCer to assess their ability to suppress αGalCer-induced inflammation.

The subject of assay [6] is Splenocytes. As to the kind of experiment: Immune-stimulating function of compounds alone (splenocytes in vitro). The class given is cell-based, mouse. How it is done: FIG. 6. […] Splenocytes were treated with the compounds of the invention alone to assess the immune-stimulating function of the compounds. Compounds 12, 18, 22, 27, and 29 induced significant IFNγ secretion, and compound 8 induced significant IL-4 secretion.
as §1
Splenocytes were treated with the compounds of the invention alone to assess the immune-stimulating function of the compounds by measuring their ability to promote the secretions of IFN-γ and IL-4.

The subject of assay [7] is OVA-induced AHR mouse model. As to the kind of experiment: Suppression of OVA-induced airway hyperreactivity (AHR) in vivo. Particulars: OVA-induced AHR mouse model (FIG. 7). How it is done:
FIG. 7. […] The capability of selected compounds 8, 12, 18, and 27 in suppressing Th2 inflammation in vivo was assessed using the OAV-induced AHR mouse model.
(§4) For ovalbumin (OVA) challenge, mice were sensitized intraperitoneally (i.p.) with 50 μg of OVA with 2% alhydrogel adjuvant (InvivoGen). Mice were challenged three times with 50 μg of OVA on day 7 post-sensitization, either daily or every other day. Mice were sacrificed the day after the last OVA challenge. The scheme of the OT-1 adoptive transfer mouse model for examining the proliferation of CD8^+ T cells in adjuvanting OVA challenge is described in FIG. 13.
Mice were anesthetized with 100 mg per kg body weight pentobarbital (Sigma-Aldrich), tracheotomised and mechanically ventilated via the FinePointe RC system (Buxco Research Systems, Wilmington, NC). Lung function was assessed by measuring lung resistance and dynamic compliance in response to increasing doses of aerosolized methacholine (1.25-40 mg/mL, Sigma-Aldrich).
Using the Th2 OVA-induced AHR mouse model, we assessed the capability of selected compounds 8, 12, 18, and 27 in suppressing Th2 inflammation.

The test system of assay [8] is B6 mice. As to the kind of experiment: Adjuvancy function in vivo (serum IFNγ and IL-4 after injection). How it is done: FIG. 11. […] The adjuvancy capability of the selected compounds 8, 12, 18, 27, and 29 in vivo was assessed by measuring the serum level of IFNγ and IL-4 induced after injecting them into B6 mice.
Besides assessing the ability of the new compounds to suppress inflammation, we also looked into their function to act as adjuvants, i.e. their ability to promote desirable immunological trends in the development of vaccines. We measured the in vivo adjuvancy capability of selected compounds 8, 12, 18, 27, and 29 in inducing IFNγ and IL-4 in B6 mice (FIG. 11).

In assay [9] the test system is DC-maturation marker CD86 in the spleen of mice. The assay can be described thus: DC maturation in vivo (CD86 mRNA in spleen). Particulars: mice injected with the compound (FIG. 12). How it is done:
FIG. 12. […] The capability of selected compounds 8, 12, 18, 27, and 29 in promoting DC maturation in vivo was assessed by the mRNA level of DC-maturation marker CD86 in the spleen of mice injected with the compounds of the invention.
The capability of selected compounds 8, 12, 18, 27, and 29 in promoting DC maturation in vivo was assessed by the mRNA level of DC-maturation marker CD86 in the spleen of mice injected with the compounds of the invention.

The subject of assay [10] is CD8+ T cells in the spleen, OT-1 adoptive transfer mouse model. As to the kind of experiment: Th1 immune response in vivo (CD8+ T cell proliferation, OT-1 adoptive transfer mouse model). Particulars: OT-1 adoptive transfer mouse model (FIG. 13). How it is done:
FIG. 13. […] The adjuvancy capability of selected compounds 12 and 27 in vivo was assessed by their capability in promoting the proliferation of CD8^+ T cells in the spleen in the OT-1 adoptive transfer mouse model as described in the scheme.
as §4
Compounds 12 and 27 were injected into OT-1 mice (transgenic mice that express a TCR that is specific for an ovalbumin OVA peptide) to validate the Th1-biased immunomodulation property.

The subject of assay [11] is splenocytes isolated from MyD88 KO mice. The assay can be described thus: MyD88 dependency of cytokine induction (splenocytes from MyD88 KO mice in vitro). Type of assay: cell-based. From the text:
FIG. 14. […] The dependency of the compounds of the invention on functional MyD88 for biological function was examined using the representative compound 12, with immune cells isolated from MyD88 knocked-out mice. […] IL-4 was not detectable with compound 12 treatment, indicating a Th1-biased property.
(§5) To determine whether the adjuvancy function of the representative compound 12 is MyD88-dependent or not, we performed experiments with immune cells isolated from MyD88 knocked-out (KO) mice. […] Data are dose-dependent and differences become more pronounced at the higher concentrations. […] Taken together, the results support that compound 12 adjuvancy function is MyD88-dependent.

Assay [12] relates to BMDC from MyD88 deficient mice. As to the kind of experiment: MyD88 dependency of BMDC maturation. Type of assay: cell-based. Particulars: BMDC from MyD88 deficient mice (FIG. 16).
Description: as §5

Where [13] appears, read: splenocytes treated with compound alone (FIG. 6).
Setting [14] is: 2 hours after injection (FIG. 11).
The mark [15] stands for this setting: 18 hours after injection (FIG. 11).

For `CCCCCCCCCCCCNC(=O)C(COC1C(O)C(O)C(O)C2COC(=O)N21)NC(=O)CCCCCCCCCCC` (stereo not drawn) [Compound 12], in assay [1], the “suppressive function on LPS-induced inflammation” value is given as “prominent inflammation-suppressing function”. Besides, the “phosphorylation of ERK” value in [2] is “significantly reduced”. In addition, the “phosphorylation of JNK” value in assay [3] is “not JNK”. In addition, the “phosphorylation of STAT3” value in assay [4] was “significant reduction of phosphorylation”. In addition, the “suppressive function on αGalCer-induced inflammation” value in assay [5] is given as “prominent inflammation-suppressing function”. In assay [6] (concluded from IFNγ and IL-4 secretion of splenocytes (FIG. 6)), the Th1/Th2 bias entry was “Th1-biased”. Further, in [6] (setting [13]), the IFNγ secretion entry is given as “effective in promoting the productions of IFNγ” and the IL-4 secretion result was “not IL-4”. The “suppression of airway hyperreactivity (AHR)” value in [7] is “can suppress AHR onset”. Besides, in [8] (setting [14]), the “serum level of IFNγ induced” value was “significant capability in inducing” and the “serum level of IL-4 induced” value is “significant capability in inducing”. In addition, in assay [8] (setting [15]), the “serum level of IFNγ induced” value was “significant detectable level” and the “serum level of IL-4 induced” value is on record as “significant detectable level”. Further, the “CD86 mRNA expression in the spleens of mice” value in assay [9] is listed as “significant increase”. The “proliferation of CD8+ T cells in the spleen” value in assay [10] is listed as “significant CD8^+ T cell proliferation”. In addition, the “ability to induce IFNγ” value in [11] (splenocytes isolated from MyD88 KO mice (FIG. 14)) is “completely abrogated”. Further, in assay [11] (splenocytes, MyD88 experiment (FIG. 14)), the IL-4 induction entry is reported as “no IL-4 induction was observed”. Further, the “maturation of BMDC induced by compound treatment” value in assay [12] is given as “impeded”.
